Measured values taken from ChEMBL document CHEMBL5331104, “Discovery of BRD4-HDAC Dual Inhibitors with Improved Fungal Selectivity and Potent Synergistic Antifungal Activity against Fluconazole-Resistant Candida albicans” (J Med Chem, 2023).
≈ marks a conversion by molar mass, not a printed value.

Legend:
[1] = molecular target: Histone deacetylase 1 (Homo sapiens, UniProt Q13547); experiment: Inhibition of full-length recombinant human HDAC1 (1 to 482 residues) expressed in baculovirus infected insect cells using […] as substrate incubated for 30 mins by fluorescence based analysis; design: species or system Insect cell
[2] = in vitro; conditions: human, HUVEC cells
Description: Cytotoxicity against HUVECs assessed as inhibition of cell growth incubated for 48 hrs by CCK8 assay

[3] = tested on: HEL; experiment: Antiproliferative activity against human HEL cells incubated for 48 hrs by CCK8 assay; format: functional, cell-based
[4] = tested on: Candida albicans; format: functional, 0304103; conditions: time 24 hrs
Description: Synergetic antifungal activity against Candida albicans 0304103 assessed as fractional inhibitory concentration index incubated for 24 hrs in the presence of fluconazole by checkerboard microdilution method

[5] = tested on: Cryptococcus neoformans; experiment: Antifungal activity against Cryptococcus neoformans H99 assessed as fungal growth inhibition incubated for 24 hrs by broth dilution method; format: functional
[6] = tested on: Candida albicans; experiment: Antifungal activity against Candida albicans SC5314 assessed as fungal growth inhibition incubated for 24 hrs by broth dilution method; format: functional
[7] = tested on: Candida albicans; experiment: microbe, parasite or virus in culture; format: functional; conditions: 0304103
Description: Antifungal activity against Candida albicans 0304103 assessed as microbial growth inhibition

[8] = tested on: Candida albicans; experiment: microbe, parasite or virus in culture; format: functional; conditions: 0304103, time 24 hrs
Description: Synergetic antifungal activity against Candida albicans 0304103 assessed as microbial growth inhibition incubated for 24 hrs in the presence of fluconazole by checkerboard microdilution method

[9] = molecular target: Histone deacetylase; experiment: Inhibition of total HDAC in human HUVEC cells using Boc-Lys(Ac)-AMC as substrate preincubated for 12 hrs followed by substrate addition measured after 6 hrs by microtiter plate reader analysis; format: cell-based
[10] = tested on: K562; experiment: Antiproliferative activity against human K562 cells incubated for 48 hrs by CCK8 assay; format: functional, cell-based; conditions: K562, 48 h
[11] = tested on: HL-60; experiment: Antiproliferative activity against human HL-60 cells incubated for 48 hrs by CCK8 assay; format: functional, cell-based; conditions: HL-60, 48 h

Chain of Histone deacetylase 1 (Q13547 whole entry, the tested form may be a part): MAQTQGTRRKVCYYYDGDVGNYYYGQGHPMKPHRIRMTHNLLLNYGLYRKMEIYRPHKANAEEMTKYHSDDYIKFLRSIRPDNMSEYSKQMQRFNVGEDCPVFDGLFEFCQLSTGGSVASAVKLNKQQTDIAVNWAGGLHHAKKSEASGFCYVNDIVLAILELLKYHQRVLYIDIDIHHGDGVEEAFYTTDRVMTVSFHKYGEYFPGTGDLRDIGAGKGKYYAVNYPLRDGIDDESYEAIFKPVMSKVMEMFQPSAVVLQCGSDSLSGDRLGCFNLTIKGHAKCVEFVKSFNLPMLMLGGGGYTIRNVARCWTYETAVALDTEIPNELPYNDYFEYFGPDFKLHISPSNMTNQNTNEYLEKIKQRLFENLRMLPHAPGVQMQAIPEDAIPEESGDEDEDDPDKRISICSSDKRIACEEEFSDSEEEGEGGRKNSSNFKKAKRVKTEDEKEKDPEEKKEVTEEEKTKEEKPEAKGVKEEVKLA

Row | Structure (SMILES) | IC50 [1] [µM] | IC50 at 48 h [2] [µM] | IC50 [3] [µM] | fractional inhibitory concentration index (FICI) [4] | MIC80 [5] [µg/mL] | MIC80 [6] [µg/mL] | MIC80 [7] [µg/mL] | MIC80 [8] [µg/mL] | IC50 [9] [µM] | IC50 [10] [µM] | IC50 [11] [µM]
1 | Cc1nnc2n1-c1ccccc1C(c1ccccc1)=N[C@H]2CC(=O)NCc1ccc(C(=O)NO)cc1 | 0.25 | 17 | > 10 | 0.14 | 32 (≈ 66.6 µM) | > 64 | > 64 | 8 (≈ 16.6 µM) | 2.8 | > 10 | 5.7
2 | Cc1ccc(C2=N[C@@H](CC(=O)Nc3ccc(/C=C/C(=O)NO)cc3)c3nnc(C)n3-c3ccccc32)cc1 | 0.18 | 14 | 9 | 0.094 | 8 (≈ 15.8 µM) | > 64 | > 64 | 4 (≈ 7.9 µM) | 0.63 | 1.4 | 4.2
3 | Cc1ccc(C2=N[C@@H](CC(=O)Nc3ccc(C(=O)NO)cc3)c3nnc(C)n3-c3ccccc32)cc1 | 51 | 2.8 | 0.39 | 0.078 | 32 (≈ 66.6 µM) | > 64 | > 64 | 4 (≈ 8.32 µM) | 0.13 | > 10 | 0.34
4 | Cc1nnc2n1-c1ccc(Cl)cc1C(c1ccccc1Cl)=N[C@H]2CC(=O)Nc1ccc(CC(=O)NO)cc1 | 1.1 | 19 | > 10 | 0.14 | 16 (≈ 29.1 µM) | > 64 | > 64 | 8 (≈ 14.6 µM) | 4.4 | 8 | 9.7
5 | Cc1nnc2n1-c1sc3c(c1C(c1ccc(Cl)cc1)=N[C@H]2CC(=O)Nc1ccc(CC(=O)NO)cc1)CCCC3 | 1.4 | 5.9 | 4 | 0.07 | 16 (≈ 27.8 µM) | > 64 | > 64 | 4 (≈ 6.96 µM) | 2.2 | > 10 | 1.1
6 | Cc1nnc2n1-c1sc3c(c1C(c1ccc(Cl)cc1)=N[C@H]2CC(=O)Nc1ccc(C(=O)NO)cc1)CCCC3 | 0.72 | 2.6 | 0.29 | 0.078 | 4 (≈ 7.13 µM) | > 64 | > 64 | 4 (≈ 7.13 µM) | 0.047 | 0.41 | 0.31
7 | Cc1ccc(C2=N[C@@H](CC(=O)Nc3ccc(CC(=O)NO)cc3)c3nnc(C)n3-c3ccccc32)cc1 | 2.9 | 33 | > 10 | 0.14 | 32 (≈ 64.7 µM) | > 64 | > 64 | 8 (≈ 16.2 µM) | 3.8 | > 10 | 5.1
8 | Cc1nnc2n1-c1ccc(Cl)cc1C(c1ccccc1Cl)=N[C@H]2CC(=O)Nc1ccc(/C=C/C(=O)NO)cc1 | 1.3 | 7.3 | 8.3 | 0.07 | 8 (≈ 14.2 µM) | > 64 | > 64 | 4 (≈ 7.12 µM) | 0.035 | 3.1 | 4.2
9 | Cc1nnc2n1-c1ccccc1C(c1ccccc1)=N[C@H]2CC(=O)Nc1ccc(C(=O)NO)cc1 | 0.062 | 25 | > 10 | 0.094 | 16 (≈ 34.3 µM) | > 64 | > 64 | 4 (≈ 8.57 µM) | 0.065 | 3.3 | 1.7
10 | Cc1nnc2n1-c1ccccc1C(c1ccc(Cl)cc1)=N[C@H]2CC(=O)Nc1ccc(C(=O)NO)cc1 | 0.11 | 34 | > 10 | 31 | 32 (≈ 63.9 µM) | > 64 | > 64 | 16 (≈ 31.9 µM) | 0.16 | > 10 | 0.87
11 | Cc1nnc2n1-c1ccccc1C(c1ccc(Cl)cc1)=N[C@H]2CC(=O)Nc1ccc(/C=C/C(=O)NO)cc1 | 0.63 | 8.1 | > 10 | 0.066 | 8 (≈ 15.2 µM) | > 64 | > 64 | 4 (≈ 7.59 µM) | 0.42 | 1.5 | 4.7
12 | Cc1nnc2n1-c1ccccc1C(c1ccc(Cl)cc1)=N[C@H]2CC(=O)Nc1ccc(CC(=O)NO)cc1 | 2.4 | 19 | > 10 | 0.75 | 32 (≈ 62.1 µM) | > 64 | > 64 | 32 (≈ 62.1 µM) | 2.8 | > 10 | 1.1
13 | Cc1nnc2n1-c1ccc(Cl)cc1C(c1ccccc1Cl)=N[C@H]2CC(=O)NCc1ccc(C(=O)NO)cc1 | 1.9 | 48 | > 10 | 0.16 | 16 (≈ 29.1 µM) | > 64 | > 64 | 8 (≈ 14.6 µM) | 3.4 | > 10 | > 10
14 | Cc1sc2c(c1C)C(c1ccc(Cl)cc1)=N[C@@H](CC(=O)OC(C)(C)C)c1nnc(C)n1-2 |  | 0.58 | 0.069 | >2 | > 64 | > 64 | > 64 | 64 (≈ 140 µM) |  | 1.4 | 0.15
15 | Cc1ccc(C2=N[C@@H](CC(=O)NCc3ccc(C(=O)NO)cc3)c3nnc(C)n3-c3ccccc32)cc1 | 0.89 | 20 | 7 | 0.14 | 32 (≈ 64.7 µM) | > 64 | > 64 | 8 (≈ 16.2 µM) | 5.8 | > 10 | > 10
16 | Cc1nnc2n1-c1sc3c(c1C(c1ccc(Cl)cc1)=N[C@H]2CC(=O)Nc1ccc(/C=C/C(=O)NO)cc1)CCCC3 | 0.79 | 4.7 | > 10 | 0.066 | 4 (≈ 6.81 µM) | > 64 | > 64 | 4 (≈ 6.81 µM) | 0.15 | 2.4 | 5.1
17 | Cc1nnc2n1-c1ccccc1C(c1ccc(Cl)cc1)=N[C@H]2CC(=O)NCc1ccc(C(=O)NO)cc1 | 0.56 | 23 | > 10 | 0.28 | 32 (≈ 62.1 µM) | > 64 | > 64 | 16 (≈ 31.1 µM) | 2.7 | > 10 | 7.1
18 | Cc1nnc2n1-c1ccccc1C(c1ccccc1)=N[C@H]2CC(=O)Nc1ccc(/C=C/C(=O)NO)cc1 | 0.1 | 14 | > 10 | 0.094 | 8 (≈ 16.2 µM) | > 64 | > 64 | 4 (≈ 8.12 µM) | 0.016 | 1.9 | 7
